# From ChEMBL document CHEMBL1129378, “Octanol-, chloroform-, and propylene glycol dipelargonat-water partitioning of morphine-6-glucuronide and other related opiates” (J Med Chem, 1996)
# Experiments:
# physchem [1] = settings: buffer, pH 7.4
# Description: Log D of compound; LogD at pH 7.4
# physchem [2] = settings: octanol/water
# Description: (§1) Partition coefficient of Zwitterion (logD)
# physchem [3] = settings: octanol/water; remark: listed apart in the source
# Description: Partition coefficient of anion (logD)
# physchem [4] = experiment: physchem
# Description: Sugar COOH pKa of compound
# [5] = octanol/water
# Description: Partition coefficient of cation (logD)
# physchem [6] = experiment: physchem; remark: listed apart in the source
# physchem [7] = experiment: physchem; remark: listed apart in the source
# [8] = Phenolic pKa of compound with […] NaCl; type: physicochemical
# [9] = octanol/water; remark: listed apart in the source
# Description: as §1
# [10] = Log D of compound (Chloroform water medium); type: physicochemical; settings: buffer
# [11] = Partition coefficient (logD) of Zwitterion (chloroform/water); type: physicochemical
# [12] = Partition coefficient (logD) of anion (chloroform/water); type: physicochemical
# [13] = Partition coefficient (logP) (chloroform); type: physicochemical
SMILES,logD (physchem [1]),logD (physchem [2]),logD (physchem [3]),logD [5],pKa (physchem [6]),further results
Cc1cc(=O)oc2cc(O[C@@H]3O[C@H](C(=O)O)[C@@H](O)[C@H](O)[C@H]3O)ccc12,-1.32,-0.39,-1.3,,,pKa (physchem [4]): 2.82
CC(=O)O[C@H]1C=C[C@H]2[C@H]3Cc4ccc(O)c5c4[C@@]2(CCN3C)[C@H]1O5,0.61,1.55,-0.42,< -2,8.19,pKa (physchem [7]): 9.55
CO[C@]12CC[C@@]3(C[C@@H]1[C@](C)(O)C(C)(C)C)[C@H]1Cc4ccc(O)c5c4[C@@]3(CCN1CC1CC1)[C@H]2O5 [BUPRENORPHINE],3.93,,3.24,0.45,8.31,pKa [8]: 9.62
COc1ccc2c3c1O[C@H]1[C@@H](O)C=C[C@H]4[C@@H](C2)N(C)CC[C@@]341 [CODEINE],0.22,,,< -2,,logD [9]: 1.19
CC(=O)Oc1ccc2c3c1O[C@H]1[C@@H](OC(C)=O)C=C[C@H]4[C@@H](C2)N(C)CC[C@@]341 [DIACETYLMORPHINE],0.85,1.58,,-0.94,,
CN1CC[C@]23c4c5ccc(O[C@@H]6O[C@H](C(=O)O)[C@@H](O)[C@H](O)[C@H]6O)c4O[C@H]2[C@@H](O)C=C[C@H]3[C@H]1C5 [MORPHINE 3-GLUCURONIDE],-1.12,-1.1,-1.45,< -2,,logD [10]: -1.18; logD [11]: -1.12; logD [12]: < -2; logP [13]: -1.12
CN1CC[C@]23c4c5ccc(O)c4O[C@H]2[C@@H](O[C@@H]2O[C@H](C(=O)O)[C@@H](O)[C@H](O)[C@H]2O)C=C[C@H]3[C@H]1C5 [MORPHINE GLUCURONIDE],,,,,,pKa (physchem [7]): 9.42
COc1ccc2c3c1O[C@H]1[C@@H](O)C=C[C@H]4[C@@H](C2)NCC[C@@]341 [NORCODEINE],-1.26,0.69,< -2,< -2,9.23,
